Results published in the NIST ThermoML archive (doi:10.1016/j.jct.2005.07.009).

What was measured:
[1] = xn = mol fraction of the nth substance listed; settings: 298.15 K, 101 kPa, Liquid, Vibrating tube method
[2] = excess molar enthalpy (molar enthalpy of mixing); xn = mol fraction of the nth substance listed; settings: 298.15 K, 101 kPa, Liquid

BrCCBr [1,2-dibromoethane] + CCOC(C)=O
Settings	excess molar enthalpy [kcal/mol]	mass density [kg/m3]
[1], x2 = 0.0526	–	2091.79
[1], x2 = 0.1032	–	2019.48
[1], x2 = 0.1562	–	1945.11
[1], x2 = 0.2107	–	1869.55
[1], x2 = 0.2686	–	1790.65
[1], x2 = 0.4371	–	1568.65
[1], x2 = 0.4987	–	1490.07
[1], x2 = 0.6182	–	1341.18
[1], x2 = 0.6799	–	1266.02
[1], x2 = 0.7399	–	1194.16
[1], x2 = 0.8065	–	1115.57
[1], x2 = 0.8705	–	1041.22
[1], x2 = 0.9341	–	968.46
[2], x2 = 0.0529	0.00619	–
[2], x2 = 0.1142	0.00951	–
[2], x2 = 0.1754	0.0111	–
[2], x2 = 0.2376	0.0103	–
[2], x2 = 0.2976	0.00906	–
[2], x2 = 0.3548	0.00643	–
[2], x2 = 0.4086	0.0028	–
[2], x2 = 0.4579	-0.00112	–
[2], x2 = 0.5045	-0.00509	–
[2], x2 = 0.536	-0.00822	–
[2], x2 = 0.5453	-0.00877	–
[2], x2 = 0.5935	-0.0133	–
[2], x2 = 0.6556	-0.0167	–
[2], x2 = 0.7113	-0.0176	–
[2], x2 = 0.7914	-0.0161	–
[2], x2 = 0.8635	-0.0119	–
[2], x2 = 0.9367	-0.00602	–

BrCCBr [1,2-dibromoethane] + CCOC=O
Settings	excess molar enthalpy [kcal/mol]	mass density [kg/m3]
[1], x2 = 0.062	–	2094.82
[1], x2 = 0.1228	–	2022.36
[1], x2 = 0.1867	–	1945.54
[1], x2 = 0.2494	–	1869.83
[1], x2 = 0.3088	–	1797.46
[1], x2 = 0.366	–	1727.27
[1], x2 = 0.4251	–	1654.13
[1], x2 = 0.4893	–	1574.29
[1], x2 = 0.5444	–	1505.3
[1], x2 = 0.6044	–	1429.44
[1], x2 = 0.6588	–	1360.3
[1], x2 = 0.7175	–	1285.15
[1], x2 = 0.8304	–	1138.86
[1], x2 = 0.8871	–	1064.61
[1], x2 = 0.9405	–	994.23
[2], x2 = 0.0568	0.0286	–
[2], x2 = 0.1289	0.0522	–
[2], x2 = 0.1965	0.0704	–
[2], x2 = 0.2654	0.0861	–
[2], x2 = 0.3304	0.0957	–
[2], x2 = 0.3922	0.0993	–
[2], x2 = 0.4464	0.0988	–
[2], x2 = 0.497	0.0966	–
[2], x2 = 0.5357	0.0939	–
[2], x2 = 0.5433	0.0896	–
[2], x2 = 0.5813	0.0887	–
[2], x2 = 0.5831	0.0816	–
[2], x2 = 0.6341	0.0816	–
[2], x2 = 0.6895	0.0722	–
[2], x2 = 0.7525	0.0596	–
[2], x2 = 0.8186	0.0457	–
[2], x2 = 0.8841	0.0318	–
[2], x2 = 0.9442	0.016	–

BrCCCCCCBr [1,6-dibromohexane] + CCCCC(=O)OCC
Settings	excess molar enthalpy [kcal/mol]	mass density [kg/m3]
[1], x2 = 0.0648	–	1555.13
[1], x2 = 0.1774	–	1474.02
[1], x2 = 0.2329	–	1433.91
[1], x2 = 0.2964	–	1387.86
[1], x2 = 0.4137	–	1302.47
[1], x2 = 0.5312	–	1216.59
[1], x2 = 0.5868	–	1175.74
[1], x2 = 0.6906	–	1099.24
[1], x2 = 0.7612	–	1047.08
[1], x2 = 0.819	–	1004.24
[1], x2 = 0.8814	–	957.89
[1], x2 = 0.934	–	918.67
[2], x2 = 0.0622	0.00727	–
[2], x2 = 0.1322	0.011	–
[2], x2 = 0.2027	0.0138	–
[2], x2 = 0.2702	0.015	–
[2], x2 = 0.3359	0.0146	–
[2], x2 = 0.3944	0.0124	–
[2], x2 = 0.4464	0.00935	–
[2], x2 = 0.4901	0.00566	–
[2], x2 = 0.5274	0.00182	–
[2], x2 = 0.5624	-0.00213	–
[2], x2 = 0.6245	-0.00614	–
[2], x2 = 0.6853	-0.00767	–
[2], x2 = 0.7481	-0.00784	–
[2], x2 = 0.8143	-0.00715	–
[2], x2 = 0.8791	-0.00547	–
[2], x2 = 0.947	-0.00327	–
